Legend:
[1] = tested on: primary dermal fibroblasts; experiment: % change in live cells vs DMSO control; higher = less cytotoxic; conditions: time (h post treatment): 48
Protocol: (§1)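 Cytotoxicity in uninfected 2D primary donor keratinocytes (20 h post treatment) and fibroblasts (48 h post treatment), measured with NucSpot live/dead dyes on IncuCyte. Live cells are normalised to the 0.2% DMSO control and shown as % change. Three biological replicates for each of donors 3, 4 and 5.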

primary keratinocytes = experiment: as above; conditions: time (h post treatment): 20
Protocol: as §1

[2] = tested on: HSV-1 K26-GFP infected primary human skin cells; experiment: % change of HSV-1 GFP signal vs untreated infected cells; higher = less antiviral inhibition; conditions: cell type: primary dermal fibroblasts, time (h post infection): 48
Protocol: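 2D primary donor-derived dermal fibroblasts infected with GFP-HSV-1 K26 at MOI 1, treated 1 h later with compound dilutions and read at 48 hpi on IncuCyte. GFP integrated intensity is normalised to mock-infected and untreated infected wells (% change; -100 = full inhibition).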

[3] = tested on: HSV-1 K26-GFP infected 3D skin equivalent; experiment: % change of tdTomato fibroblast signal relative to infected DMSO control; higher = higher signal (negative = inhibition / toxicity); conditions: time (h post infection): 48
Protocol: (§2)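 Triplicate dose-response (0.04 to 10 uM) of 11 top compounds in 3D bioprinted skin equivalents (submerged and ALI models) infected with GFP-HSV-1 K26 at MOI 0.1 and fixed at 48 hpi. GFP (virus) and tdTomato (fibroblast viability) signals are normalised to per-plate controls.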

[4] = tested on: HSV-1 K26-GFP infected 3D skin equivalent; experiment: % activity on HSV-1 GFP signal (0 = infected DMSO control, -100 = uninfected control); higher = higher signal (negative = inhibition / toxicity); conditions: time (h post infection): 48
Protocol: as §2

Nc1ccn([C@@H]2O[C@H](CO)[C@@H](O)C2(F)F)c(=O)n1 [Gemcitabine]
Conditions	% activity on HSV-1 GFP signal [%]	% change in live cells [%]	% change of HSV-1 GFP signal [%]	% change of tdTomato fibroblast signal [%]
[1], 0.082305 µM, donor: 3	–	-21.3	–	–
[1], 0.082305 µM, donor: 4	–	-9.33	–	–
[1], 0.082305 µM, donor: 5	–	-5	–	–
[1], 0.246914 µM, donor: 3	–	-23.7	–	–
[1], 0.246914 µM, donor: 4	–	-9.33	–	–
[1], 0.246914 µM, donor: 5	–	-11.3	–	–
[1], 0.740741 µM, donor: 3	–	-27.3	–	–
[1], 0.740741 µM, donor: 4	–	-15.7	–	–
[1], 0.740741 µM, donor: 5	–	-21.3	–	–
[1], 2.22222 µM, donor: 3	–	-30.3	–	–
[1], 2.22222 µM, donor: 4	–	-11.7	–	–
[1], 2.22222 µM, donor: 5	–	-26.3	–	–
[1], 6.66667 µM, donor: 3	–	-33.3	–	–
[1], 6.66667 µM, donor: 4	–	-9.67	–	–
[1], 6.66667 µM, donor: 5	–	-34.3	–	–
[1], 20 µM, donor: 3	–	-38	–	–
[1], 20 µM, donor: 4	–	-18	–	–
[1], 20 µM, donor: 5	–	-43.3	–	–
[1], 60 µM, donor: 3	–	-43.7	–	–
[1], 60 µM, donor: 4	–	-19.7	–	–
[1], 60 µM, donor: 5	–	-52.7	–	–
[2], 0.001 µM, donor: 3	–	–	2.63	–
[2], 0.003 µM, donor: 3	–	–	2.52	–
[2], 0.003 µM, donor: 4	–	–	-2.11	–
[2], 0.0091 µM, donor: 3	–	–	1.9	–
[2], 0.0091 µM, donor: 4	–	–	-1.82	–
[2], 0.0274 µM, donor: 3	–	–	-32.1	–
[2], 0.0274 µM, donor: 4	–	–	-16.7	–
[2], 0.0823 µM, donor: 3	–	–	-96.7	–
[2], 0.0823 µM, donor: 4	–	–	-78	–
[2], 0.2469 µM, donor: 3	–	–	-99.824	–
[2], 0.2469 µM, donor: 4	–	–	-96.4	–
[2], 0.7407 µM, donor: 3	–	–	-99.797	–
[2], 0.7407 µM, donor: 4	–	–	-99.75	–
[2], 2.2222 µM, donor: 3	–	–	-99.74	–
[2], 2.2222 µM, donor: 4	–	–	-99.81	–
[2], 6.6667 µM, donor: 3	–	–	-99.76	–
[2], 6.6667 µM, donor: 4	–	–	-99.83	–
[2], 20 µM, donor: 3	–	–	-99.73	–
[2], 20 µM, donor: 4	–	–	-99.907	–
[3], 0.041152 µM, model: ALI	–	–	–	-3.97
[3], 0.041152 µM, model: submerged	–	–	–	-1.22
[3], 0.123457 µM, model: ALI	–	–	–	-3.65
[3], 0.123457 µM, model: submerged	–	–	–	-6.59
[3], 0.37037 µM, model: ALI	–	–	–	-3.96
[3], 0.37037 µM, model: submerged	–	–	–	-13.9
[3], 1.111111 µM, model: ALI	–	–	–	-5.76
[3], 1.111111 µM, model: submerged	–	–	–	-17.6
[3], 3.33333 µM, model: ALI	–	–	–	-10.9
[3], 3.33333 µM, model: submerged	–	–	–	-22.7
[3], 10 µM, model: ALI	–	–	–	-5.25
[3], 10 µM, model: submerged	–	–	–	-28.4
[4], 0.041152 µM, model: ALI	-11.7	–	–	–
[4], 0.041152 µM, model: submerged	-9.74	–	–	–
[4], 0.123457 µM, model: ALI	-37.9	–	–	–
[4], 0.123457 µM, model: submerged	-26.5	–	–	–
[4], 0.37037 µM, model: ALI	-102	–	–	–
[4], 0.37037 µM, model: submerged	-92.4	–	–	–
[4], 1.111111 µM, model: ALI	-106	–	–	–
[4], 1.111111 µM, model: submerged	-97	–	–	–
[4], 3.33333 µM, model: ALI	-99.4	–	–	–
[4], 3.33333 µM, model: submerged	-99	–	–	–
[4], 10 µM, model: ALI	-102	–	–	–
[4], 10 µM, model: submerged	-99.8	–	–	–
primary keratinocytes, 0.082305 µM, donor: 3	–	-37.7	–	–
primary keratinocytes, 0.082305 µM, donor: 4	–	-63	–	–
primary keratinocytes, 0.082305 µM, donor: 5	–	-51.3	–	–
primary keratinocytes, 0.246914 µM, donor: 3	–	-45.3	–	–
primary keratinocytes, 0.246914 µM, donor: 4	–	-67.7	–	–
primary keratinocytes, 0.246914 µM, donor: 5	–	-52.7	–	–
primary keratinocytes, 0.740741 µM, donor: 3	–	-49.7	–	–
primary keratinocytes, 0.740741 µM, donor: 4	–	-63.7	–	–
primary keratinocytes, 0.740741 µM, donor: 5	–	-51.3	–	–
primary keratinocytes, 2.22222 µM, donor: 3	–	-52.3	–	–
primary keratinocytes, 2.22222 µM, donor: 4	–	-63.7	–	–
primary keratinocytes, 2.22222 µM, donor: 5	–	-55.7	–	–
primary keratinocytes, 6.66667 µM, donor: 3	–	-57.3	–	–
primary keratinocytes, 6.66667 µM, donor: 4	–	-74.3	–	–
primary keratinocytes, 6.66667 µM, donor: 5	–	-61	–	–
primary keratinocytes, 20 µM, donor: 3	–	-75.7	–	–
primary keratinocytes, 20 µM, donor: 4	–	-76.3	–	–
primary keratinocytes, 20 µM, donor: 5	–	-70	–	–
primary keratinocytes, 60 µM, donor: 3	–	-77.7	–	–
primary keratinocytes, 60 µM, donor: 4	–	-87.3	–	–
primary keratinocytes, 60 µM, donor: 5	–	-78.7	–	–

Reference: the supplement of paper PMC12533247
